Laboratory results published in patent publication US20180193274A1, “COMPOSITIONS FOR ILEO-JEJUNAL DRUG DELIVERY” (Principia Biopharma Inc., priority 2014, published 2018).
Where two headings read alike, the source gives them in different places.

Experiments:
[1] = Pharmacokinetic experiment comparing oral gavage, intra-duodenal and intra-jejunal dosing in rats; assay type: in vivo, Wister-Hans rats
Excerpt: FIG. 1 depicts the results of a pharmacokinetic experiment comparing oral and intra-duodenal gavage dosing of (R)-2-(3-(4-amino-3-(2-fluoro-4-phenoxyphenyl)-1H-pyrazolo[3,4-d]pyrimidin-1-yl)piperidine-1-carbonyl)-4-methyl-4-(4-(oxetan-3-yl)piperazin-1-yl)pent-2-enenitrile having E/Z ratio of about 9:1. The area under the curve (AUC) and the Cmax are plotted.
(R)-2-(3-(4-amino-3-(2-fluoro-4-phenoxyphenyl)-1H-pyrazolo[3,4-d]pyrimidin-1-yl)piperidine-1-carbonyl)-4-methyl-4-(4-(oxetan-3-yl)piperazin-1-yl)pent-2-enenitrile was dosed in 10 mg/mL aqueous citrate solution at 20 mg/kg to Wister-Hans rats. Anhydrous citric acid (0.5 equivalents) was added to the free base of (R)-2-(3-(4-amino-3-(2-fluoro-4-phenoxyphenyl)-1H-pyrazolo[3,4-d]pyrimidin-1-yl)piperidine-1-carbonyl)-4-methyl-4-(4-(oxetan-3-yl)piperazin-1-yl)pent-2-enenitrile. The experiment was repeated 3 times each with 2 separate arms, and one oral gavage arm was included in each study. Intra-jejunal (IJ) and intra-duodenal dosing was done in cannulated rats. In the first study, there was a 40-fold increase in the AUC for the IJ-dosed group compared to the PO group, and the metabolite present in the IJ-group was reduced 10-fold.

[2] = cited from earlier work
[3] = 20 mg/kg, intra-duodenal vs oral, FIG. 1
[4] = 20 mg/kg, intra-jejunal vs oral, FIG. 1

SMILES	AUC, ID dosing compared to PO dosing [1, 3]	Cmax, ID dosing compared to PO dosing [1, 3]	AUC, IJ dosing compared to PO dosing [1, 4]	Cmax, IJ dosing compared to PO dosing [1, 4]	increase in the AUC for the IJ-dosed group compared to the PO group ([1]; first study, 20 mg/kg in 10 mg/mL aqueous citrate solution, intra-jejunal vs oral gavage) [fold]	bioavailability as determined by AUC ([2]; administered intraduodenally) [%]	bioavailability as determined by AUC ([2]; direct oral administration) [%]
CC(C)(C=C(C#N)C(=O)N1CCC[C@@H](n2nc(-c3ccc(Oc4ccccc4)cc3F)c3c(N)ncnc32)C1)N1CCN(C2COC2)CC1 [(R)-2-(3-(4-amino-3-(2-fluoro-4-phenoxyphenyl)-1H-pyrazolo[3,4-d]pyrimidin-1-yl)piperidine-1-carbonyl)-4-methyl-4-(4-(oxetan-3-yl)piperazin-1-yl)pent-2-enenitrile]	increased	increased	substantially increased	substantially increased	40		
C=CC(=O)N1CCC[C@@H](n2nc(-c3ccc(Oc4ccccc4)cc3)c3c(N)ncnc32)C1 [ibrutinib, 1-[(3R)-3-[4-Amino-3-(4-phenoxyphenyl)-1H-pyrazolo[3,4-d]pyrimidin-1-yl]piperidin-1-yl]prop-2-en-1-one]						100	21
